Test results taken from publication PMC12250605, “Recombinant Expression and Characterization of a Novel Type I Baeyer–Villiger Monooxygenase from a Streptomyces Strain Isolated from the Rhizosphere of the Atacama Desert Lupinus oreophilus” (International Journal of Molecular Sciences, 2025).

System: T1, MO-G35A
T1 construct: full-length, C-terminal His6 tag kept, codon-optimised gene; pET-28a (cytoplasmic) or pET-22b (pelB, periplasmic), E. coli NiCo21(DE3) or Shuffle T7; 73 kDa
Assay: NADPH consumption at […] nm, sigmoidal fit
Type: biochemical, Streptomyces sp. G35A
Settings: Tris-HCl pH 7.5, 30 °C (methods) or 35 °C (results), allosteric sigmoidal fit

| Compound | Km (200 µM NADPH) [µM] | Km (5 mM BHC) [µM] |
| --- | --- | --- |
| O=C1CC2C=CCC12 (centres unmarked) [BHC, bicyclo [3.2.0] hept-2-en-6-one] | 60 | – |
| NC(=O)C1=CN([C@@H]2O[C@H](COP(=O)(O)OP(=O)(O)OC[C@H]3O[C@@H](n4cnc5c(N)ncnc54)[C@H](OP(=O)(O)O)[C@@H]3O)[C@@H](O)[C@H]2O)C=CC1 [NADPH] | – | 23.8 |
